From PMC9604775, “Bioactive Peptides from Skipjack Tuna Cardiac Arterial Bulbs: Preparation, Identification, Antioxidant Activity, and Stability against Thermal, pH, and Simulated Gastrointestinal Digestion Treatments” (Marine Drugs, 2022)
Like-named read-outs stand apart in the source and are kept apart here. Where a SMILES comes first, the peptide text is derived from it. Where no end group is shown, it is not given here.

What was measured:
[1] = set-up: method as in 10 sources, ref 24 = [24]; PMID 35127795; doi:10.3389/fnut.2021.813780; 24. Wang J. Wang Y.M. Li L.Y. Chi C.F. Wang B. Twelve antioxidant peptides from protein hydrolysate of Skipjack tuna ( Katsuwonus pelamis ) roe prepared by flavourzyme: Purification, sequence identifi ||| ref 55 = [55]; doi:10.1016/j.jff.2016.06.008; 55. Pan X. Zhao Y.Q. Hu F.Y. Wang B. Preparation and identification of antioxidant peptides from protein hydrolysate of skate (Raja porosa) cartilage J. Funct. Foods 2016 25 220 230 10.1016/j.jff.2016 ||| ref 48 = [48]; PMID 31035632; doi:10.3390/md17050251; 48. Yang X.R. Qiu Y.T. Zhao Y.Q. Chi C.F. Wang B. Purification and characterization of antioxidant peptides derived from protein hydrolysate of the marine bivalve mollusk Tergillarca granosa Mar Drugs ||| ref 15 = [15]; doi:10.1016/j.jff.2018.06.014; 15. Zhao W.H. Luo Q.B. Pan X. Chi C.F. Sun K.L. Wang B. Preparation, identification, and activity evaluation of ten antioxidant peptides from protein hydrolysate of swim bladders of miiuy croaker ( Mi ||| ref 47 = [47]; PMID 35531284; doi:10.3389/fmicb.2022.791248; 47. Sun K. Gao M. Wang Y.Z. Li X.R. Wang P. Wang B. Antioxidant peptides from protein hydrolysate of marine red algae Eucheuma cottonii : Preparation, identification, and cytoprotective mechanisms on ||| ...; conditions: literature value; cited from earlier work
[2] = set-up: method as in 5 sources, ref 41 = [41]; doi:10.1016/j.procbio.2022.01.008; 41. Wang Y.M. Li X.Y. Wang J. He Y. Chi C.F. Wang B. Antioxidant peptides from protein hydrolysate of skipjack tuna milt: Purification, identification, and cytoprotection on H 2 O 2 damaged human umbi ||| ref 44 = [44]; doi:10.1016/j.jff.2015.03.045; 44. Chi C.F. Hu F.Y. Wang B. Li T. Ding G.F. Antioxidant and anticancer peptides from protein hydrolysate of blood clam ( Tegillarca granosa ) muscle J. Funct. Foods 2015 15 301 313 10.1016/j.jff.2015 ||| ref 20 = [20]; doi:10.1016/j.jff.2014.10.027; 20. Chi C.F. Wang B. Wang Y.M. Zhang B. Deng S.G. Isolation and characterization of three antioxidant peptides from protein hydrolysate of bluefin leatherjacket ( Navodon septentrionalis ) heads J. Fu ||| ref 48 = [48]; PMID 31035632; doi:10.3390/md17050251; 48. Yang X.R. Qiu Y.T. Zhao Y.Q. Chi C.F. Wang B. Purification and characterization of antioxidant peptides derived from protein hydrolysate of the marine bivalve mollusk Tergillarca granosa Mar Drugs ||| ref 39 = [39]; PMID 31430875; doi:10.3390/antiox8080318; 39. Zhang L. Zhao G.X. Zhao Y.Q. Qiu Y.T. Chi C.F. Wang B. Identification and active evaluation of antioxidant peptides from protein hydrolysates of skipjack tuna ( Katsuwonus pelamis ) head Antioxida; conditions: literature value; cited from earlier work
[3] = Stability to simulated gastrointestinal digestion (DPPH· scavenging activity); format: in vitro ADME; conditions: two-stage model: pepsin 120 min then trypsin 120 min; 0 to 240 min; peptide 2.0 mg/mL; read-out DPPH· scavenging activity
Description: The stability of TCP1 to TCP11 from tuna cardiac arterial bulbs was determined according to the previous method with a slight modification. The DPPH· scavenging activity (%) of TCP1 to TCP11 at 2.0 mg/mL were measured at the set conditions to evaluate their stability.
The thermostability of TCP1 to TCP11 at 20, 40, 60, 80, or 100 °C for 60 min was analyzed in water bath. The influences of pH values of 3, 5, 7, 9, or 11 were employed to estimate the acid and alkali stability properties of TCP1 to TCP11 at 25 °C, and the detecting time was set to 60, 120, and 180 min, respectively. The influence of simulate GI digestion on the stability of TCP1 to TCP11 was evaluated by the two-stage digestion model. In short, APs (TCP1 to TCP11) were separately treated with pepsin for 120 min and trypsin for 120 min.

H2O2-damaged HepG2 cells = format: cell-based
Description: The assay was carried out according to the method described by Hu et al., and the H2O2 concentration of 300 µM was applied to establish the oxidative damage model of HepG2 cells. Briefly, the HepG2 cells with density of 1 × 10^5 cells/well were incubated in a 96-well plate for 24 h. The supernatant in the 96-well plate was aspirated and 100 µL of peptide samples (50.0, 100.0, or 200.0 µM, respectively) were added into the protection groups respectively for incubating 8 h. After removing peptides, H2O2 with the final concentration of 300 µM was joined in the protection and model groups. After incubating for 24 h, the wells were rinsed twice with PBS and the MTT with the final concentration of 0.5 mg/mL was added into. After incubating for 4 h, the formazan crystals formed by active cells were soluble in 150 µL of DMSO and OD570 nm of the solution was determined. Finally, the cell viability was calculated using the equation: Cell viability = (ODsample/ODcontrol) × 100%(2)

[4] = set-up: method as in 10 sources, ref 24 = [24]; PMID 35127795; doi:10.3389/fnut.2021.813780; 24. Wang J. Wang Y.M. Li L.Y. Chi C.F. Wang B. Twelve antioxidant peptides from protein hydrolysate of Skipjack tuna ( Katsuwonus pelamis ) roe prepared by flavourzyme: Purification, sequence identifi ||| ref 43 = [43]; doi:10.1016/j.foodres.2010.02.009; 43. You L. Zhao M. Regenstein J.M. Ren J. Purification and identification of antioxidant peptides from loach ( Misgurnus anguillicaudatus ) protein hydrolysate by consecutive chromatography and electr ||| ref 44 = [44]; doi:10.1016/j.jff.2015.03.045; 44. Chi C.F. Hu F.Y. Wang B. Li T. Ding G.F. Antioxidant and anticancer peptides from protein hydrolysate of blood clam ( Tegillarca granosa ) muscle J. Funct. Foods 2015 15 301 313 10.1016/j.jff.2015 ||| ref 42 = [42]; PMID 35621976; doi:10.3390/md20050325; 42. Sheng Y. Qiu Y.T. Wang Y.M. Chi C.F. Wang B. Novel antioxidant collagen peptides of Siberian sturgeon ( Acipenser baerii ) cartilages: The preparation, characterization, and cytoprotection of H 2 ||| ref 45 = [45]; PMID 23411302; doi:10.1016/j.foodchem.2012.12.002; 45. Wang B. Li L. Chi C.F. Ma J.H. Luo H.Y. Xu Y.F. Purification and Characterization of a novel antioxidant peptide derived from blue mussel ( Mytilus edulis ) protein hydrolysate Food Chem. 2013 138 ||| ...; conditions: literature value; cited from earlier work
[5] = set-up: method as in 10 sources, ref 51 = [51]; doi:10.1016/j.jff.2015.04.042; 51. Cai L. Wu X. Zhang Y. Li X. Ma S. Li J. Purification and characterization of three antioxidant peptides from protein hydrolysate of grass carp ( Ctenopharyngodon idella ) skin J. Funct. Foods 2015 ||| ref 42 = [42]; PMID 35621976; doi:10.3390/md20050325; 42. Sheng Y. Qiu Y.T. Wang Y.M. Chi C.F. Wang B. Novel antioxidant collagen peptides of Siberian sturgeon ( Acipenser baerii ) cartilages: The preparation, characterization, and cytoprotection of H 2 ||| ref 24 = [24]; PMID 35127795; doi:10.3389/fnut.2021.813780; 24. Wang J. Wang Y.M. Li L.Y. Chi C.F. Wang B. Twelve antioxidant peptides from protein hydrolysate of Skipjack tuna ( Katsuwonus pelamis ) roe prepared by flavourzyme: Purification, sequence identifi ||| ref 48 = [48]; PMID 31035632; doi:10.3390/md17050251; 48. Yang X.R. Qiu Y.T. Zhao Y.Q. Chi C.F. Wang B. Purification and characterization of antioxidant peptides derived from protein hydrolysate of the marine bivalve mollusk Tergillarca granosa Mar Drugs ||| ref 43 = [43]; doi:10.1016/j.foodres.2010.02.009; 43. You L. Zhao M. Regenstein J.M. Ren J. Purification and identification of antioxidant peptides from loach ( Misgurnus anguillicaudatus ) protein hydrolysate by consecutive chromatography and electr ||| ...; conditions: literature value; cited from earlier work
[6] = peptide 200 μmol/L, 8 h pre-incubation, then 300 µM H2O2 for 24 h, MTT, model group 50.64 ± 2.43%, mean ± SD, n = 3

Row | Compound | EC50 ABTS^+· [2] [µg/mL] | Declined percentage of DPPH· scavenging activity after simulated GI digestion [3] [%] | further results
1 | YGPM [literature antioxidant peptide from Scomberomorous niphonius skins] | 820 |  | EC50 O2^−· [1]: 730 µg/mL
2 | GVPLT [literature antioxidant peptide from Navodon septentrionalis heads] | 3124 |  | 
3 | GHHAAA [literature antioxidant peptide from tuna milts] | 1120 |  | 
4 | GEQSN [TCP2, Gly-Glu-Gln-Ser-Asn] |  | 4.49 | 
5 | GPGLM [TCP9, Gly-Pro-Gly-Leu-Met] |  |  | viability of H2O2-damaged HepG2 cells (H2O2-damaged HepG2 cells; 8 h, 200 μmol/L): 78.54 ± 3.06%
6 | VRDQY [literature antioxidant peptide from tuna milts] | 1040 |  | EC50 DPPH· [4]: 880 µg/mL
7 | GDRGD [TCP11, Gly-Asp-Arg-Gly-Asp] |  | 2.65 | 
8 | CC(=O)N[C@@H](CS)C(=O)O [N-Acetyl-L-Cysteine (NAC), N-Acetyl-L-Cysteine] |  |  | viability of H2O2-damaged HepG2 cells (H2O2-damaged HepG2 cells; [6]): 90.06 ± 3.16%
9 | GEEGD [TCP5, Gly-Glu-Glu-Gly-Asp] |  | 4.25 | 
10 | GEGQR [TCP8, Gly-Glu-Gly-Gln-Arg] |  | 4.21 | 
11 | NCCCC[C@H](NC(=O)[C@H](CCCCN)NC(=O)[C@@H]1CCCN1)C(=O)O [TCP3, Pro-Lys-Lys] (H-Pro-Lys-Lys-OH) |  |  | viability of H2O2-damaged HepG2 cells (H2O2-damaged HepG2 cells; 8 h, 200 μmol/L): 81.26 ± 1.86%
12 | CC(C)C[C@H](NC(=O)CN)C(=O)N[C@@H](CC(N)=O)C(=O)O [TCP10, Gly-Leu-Asn] (H-Gly-Leu-Asn-OH) |  | 3.15 | 
13 | WPPD [literature antioxidant peptide from blood cockle (T. granosa)] | 540 |  | EC50 O2^−· [1]: 460 µg/mL; EC50 DPPH· [4]: 360 µg/mL; EC50 HO· [5]: 380 µg/mL
14 | SVTEV [literature antioxidant peptide from tuna milts] | 1020 |  | EC50 DPPH· [4]: 890 µg/mL
15 | YEGGD [TCP6, Tyr-Glu-Gly-Gly-Asp] |  |  | viability of H2O2-damaged HepG2 cells (H2O2-damaged HepG2 cells; [6]): 74.68 ± 1.69%
